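Growth conditions: 96-well plates. Treatment: test compound, 48 hours, 5 concentrations. Analysis: linear interpolation between bracketing concentrations; unreached endpoints set to highest concentration. GI50 marks 50% less growth.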 The source made the active and inactive calls. No stated cut-off is given here; in the data, active = GI50 up to about 1.1 µM and inactive = higher. *1 amine or outer side, *2 acyl side, *3 side chain or, on linkers, in order; H or OH if unused. Where a SMILES comes first, the peptide text is derived from it. Bridges are numbered along the chain shown (N, C = ends). Roman numbers before positions name the chains, in order. [ ]: non-standard residue; d: D form. Actinocin(1to9) = Cc1c2oc3c(C)ccc(C(=O)[*:2])c3nc-2c(C(=O)[*:1])c(N)c1=O; NMeV = CN[CH](C(=O)O)C(C)C; Sar = CNCC(=O)O

Among the test systems are M14; LOX IMVI; OVCAR-5; SR; EKVX; Hs-578T; NCI-H522; BT-549; SF-268; HT-29; OVCAR-3; U-251; HOP-62; SN12C; CCRF-CEM; HOP-92; UACC-257; SK-OV-3; NCI-H226; RPMI-8226.
What all share (test): NCI anticancer screen, dose series, 48 h

As for `Brc1cccc(Nc2nc(-c3cccs3)nc3ccc(Br)cc23)c1`, the GI50 was 25.5 µM (inactive) in the experiment with M14; 31.3 µM (inactive) in the experiment on LOX IMVI; 25.2 µM (inactive) with OVCAR-5; 1.48 µM (inactive) with SR; 15 µM (inactive) in the experiment with EKVX; 38.8 µM (inactive) in the experiment on Hs-578T. Besides, the GI50 is 19 µM (inactive) in the experiment on NCI-H522; 80.9 µM (inactive) in the experiment on BT-549; 26.3 µM (inactive) in the experiment with SF-268; 17.1 µM (inactive) in the experiment with HT-29; 16.1 µM (inactive) in the experiment with OVCAR-3; 31.5 µM (inactive) with U-251. Also, the GI50 in the experiment with HOP-62 is 32.1 µM (inactive); in the experiment on SN12C, 22.7 µM (inactive); in the experiment on CCRF-CEM, 1.51 µM (inactive); with HOP-92 it was 19.6 µM (inactive); with UACC-257, 26.6 µM (inactive); in the experiment on SK-OV-3, > 100 µM (inactive). Moreover, the GI50 with NCI-H226 is 31.4 µM (inactive); with RPMI-8226, 44.9 µM (inactive).
Turning to `N=C(N)NCCN1CCCCCc2ccccc21`, the GI50 is > 10 µM (inactive) in the experiment with M14; > 10 µM (inactive) in the experiment with LOX IMVI; > 10 µM (inactive) in the experiment on OVCAR-5; > 10 µM (inactive) in the experiment on SR; > 10 µM (inactive) with EKVX; 8.05 µM (inactive) in the experiment on Hs-578T. For the same compound, the GI50 in the experiment on NCI-H522 was > 10 µM (inactive); with BT-549 it was 7.08 µM (inactive); with SF-268 it was 3.27 µM (inactive); in the experiment on HT-29, > 10 µM (inactive); with OVCAR-3, > 10 µM (inactive); with U-251, > 10 µM (inactive). Moreover, the GI50 was > 10 µM (inactive) with HOP-62; > 10 µM (inactive) in the experiment on SN12C; > 10 µM (inactive) in the experiment on CCRF-CEM; 5.24 µM (inactive) in the experiment with HOP-92; > 10 µM (inactive) in the experiment with UACC-257; > 10 µM (inactive) in the experiment on SK-OV-3. Also, the GI50 in the experiment on NCI-H226 and in the experiment on RPMI-8226 was > 10 µM (inactive) in each case.
For `N#CC1(O)CCCCCCCCCCC1`, the GI50 in the experiment with M14, with LOX IMVI, with OVCAR-5, with SR, with EKVX and in the experiment on Hs-578T was > 100 µM (inactive) throughout. Also, the GI50 with NCI-H522 is 48.8 µM (inactive); in the experiment on BT-549, > 100 µM (inactive); with SF-268 it was > 100 µM (inactive); in the experiment on HT-29, > 100 µM (inactive); in the experiment on OVCAR-3, > 100 µM (inactive); in the experiment with U-251, > 100 µM (inactive). For the same compound, the GI50 in the experiment with HOP-62, in the experiment with SN12C, in the experiment on CCRF-CEM, in the experiment on HOP-92, in the experiment on UACC-257 and in the experiment with SK-OV-3 was > 100 µM (inactive) throughout. In addition, the GI50 in the experiment on NCI-H226 and in the experiment on RPMI-8226 was > 100 µM (inactive) throughout.
On to `COC(=O)C(=O)C(C(=O)C(=O)Nc1cc(C)ccc1C)c1nc2ccccc2nc1O` (stereo not given), for which the GI50 with M14 is > 100 µM (inactive); with LOX IMVI, > 100 µM (inactive); with OVCAR-5, > 100 µM (inactive); with SR, 30.3 µM (inactive); in the experiment with EKVX it was 26.6 µM (inactive); in the experiment on Hs-578T it was 74.3 µM (inactive). Further, the GI50 in the experiment on NCI-H522, in the experiment on BT-549, in the experiment with SF-268, in the experiment on HT-29, with OVCAR-3 and in the experiment with U-251 was > 100 µM (inactive) each time. In addition, the GI50 with HOP-62 is > 100 µM (inactive); with SN12C, > 100 µM (inactive); with CCRF-CEM it was 36.1 µM (inactive); in the experiment with HOP-92, 26.7 µM (inactive); with UACC-257 it was > 100 µM (inactive); in the experiment with SK-OV-3 it was > 100 µM (inactive). Besides, the results for the GI50 in the experiment on NCI-H226 and in the experiment on RPMI-8226 were > 100 µM (inactive) and 19.6 µM (inactive), respectively.
As to `CCC(C)C1NC(=O)C(NC(=O)c2c3nc4c(C(=O)NC5C(=O)NC(C(C)C)C(=O)N6CCCC6C(=O)N(C)CC(=O)N(C)C(C(C)C)C(=O)OC5C)ccc(C)c4oc-3c(C)c(=O)c2N)C(C)OC(=O)C(C(C)C)N(C)C(=O)CN(C)C(=O)C2CCCN2C1=O` (stereo not given) (I: TIP[Sar][NMeV] / II: TVP[Sar][NMeV]; ester I:1-I:C, II:1-II:C; linker I:N-II:N via Actinocin(1to9); configuration not given here), the GI50 with M14 is 0.00269 µM (active); in the experiment with LOX IMVI, < 0.0001 µM (active); in the experiment with OVCAR-5, 0.000586 µM (active); in the experiment with SR, 0.000244 µM (active); in the experiment with EKVX, 0.00377 µM (active); in the experiment on Hs-578T, 0.00546 µM (active). Moreover, the GI50 with NCI-H522 was < 0.0001 µM (active); in the experiment on BT-549 it was 0.00247 µM (active); with SF-268 it was 0.000916 µM (active); in the experiment on HT-29, < 0.0001 µM (active); with OVCAR-3 it was 0.0185 µM (active); with U-251, < 0.0001 µM (active). The GI50 with HOP-62 is 0.000594 µM (active); in the experiment on SN12C, 0.000388 µM (active); with CCRF-CEM, 0.000421 µM (active); with HOP-92, 0.00161 µM (active); in the experiment on UACC-257 it was 0.00119 µM (active); with SK-OV-3 it was 0.0152 µM (active). For the same compound, the GI50 is 0.0101 µM (active) with NCI-H226 and < 0.0001 µM (active) with RPMI-8226.
With `O=C(C(=O)n1ccc2ccccc21)c1c[nH]c2ccccc12`, the GI50 with M14, in the experiment with LOX IMVI, in the experiment on OVCAR-5, in the experiment on SR, with EKVX and in the experiment with Hs-578T was > 10 µM (inactive) in each case. The GI50 with NCI-H522, in the experiment with BT-549, in the experiment with SF-268, in the experiment on HT-29, with OVCAR-3 and in the experiment on U-251 was > 10 µM (inactive) throughout. Further, the GI50 with HOP-62, in the experiment with SN12C, with CCRF-CEM, in the experiment with HOP-92, in the experiment with UACC-257 and with SK-OV-3 was > 10 µM (inactive) throughout. Besides, the GI50 in the experiment on NCI-H226 and with RPMI-8226 was > 10 µM (inactive) each time.
For the compound `CN(C)CCCC1c2ccccc2Oc2ccc(C(F)(F)F)cc21` (stereo not given), the GI50 is 5.75 µM (inactive) in the experiment with M14; 15.6 µM (inactive) with LOX IMVI; 14.9 µM (inactive) in the experiment with OVCAR-5; 7.28 µM (inactive) in the experiment on SR; 15.9 µM (inactive) with EKVX; 14.5 µM (inactive) in the experiment on Hs-578T. For the same compound, the GI50 in the experiment with NCI-H522 was 14.3 µM (inactive); in the experiment with BT-549, 14.2 µM (inactive); in the experiment on SF-268 it was 14.3 µM (inactive); in the experiment on HT-29, 5.28 µM (inactive); in the experiment on OVCAR-3 it was 15.3 µM (inactive); in the experiment with U-251, 11.4 µM (inactive). In addition, the GI50 with HOP-62 was 16.5 µM (inactive); with SN12C, 13.5 µM (inactive); in the experiment on CCRF-CEM it was 9.42 µM (inactive); in the experiment with HOP-92 it was 11.9 µM (inactive); with UACC-257 it was 11.6 µM (inactive); in the experiment on SK-OV-3, 16.8 µM (inactive). For the same compound, the GI50 with NCI-H226 and in the experiment on RPMI-8226 was 8.2 µM (inactive) throughout.
Regarding `O=[N+]([O-])c1nccn1CC(O)CN1CCCCC1` (stereo not given) [PIMONIDAZOLE], the GI50 with M14, in the experiment on LOX IMVI, with OVCAR-5, with SR, in the experiment on EKVX and in the experiment with Hs-578T was > 100 µM (inactive) throughout. The GI50 with NCI-H522, in the experiment with BT-549, with SF-268, with HT-29, with OVCAR-3 and with U-251 was > 100 µM (inactive) each time. Further, the GI50 with HOP-62, with SN12C, with CCRF-CEM, with HOP-92, with UACC-257 and in the experiment on SK-OV-3 was > 100 µM (inactive) in each case. Further, the GI50 with NCI-H226 and in the experiment with RPMI-8226 was > 100 µM (inactive) each time.
Regarding `O=C(CSc1ncnc2[nH]cnc12)c1ccccc1`, the GI50 is > 88.3 µM (inactive) with M14; 79.4 µM (inactive) in the experiment on LOX IMVI; > 57.1 µM (inactive) with OVCAR-5; 92.5 µM (inactive) in the experiment with SR; > 100 µM (inactive) with EKVX; > 100 µM (inactive) in the experiment with Hs-578T. The GI50 in the experiment on NCI-H522 is 47.4 µM (inactive); with BT-549, > 100 µM (inactive); with SF-268, > 100 µM (inactive); in the experiment with HT-29 it was > 100 µM (inactive); in the experiment on OVCAR-3, > 100 µM (inactive); in the experiment on U-251, > 100 µM (inactive). Further, the GI50 with HOP-62 was > 100 µM (inactive); in the experiment with SN12C, > 100 µM (inactive); in the experiment with CCRF-CEM, > 65.8 µM (inactive); with HOP-92, 50.2 µM (inactive); with UACC-257 it was > 100 µM (inactive); in the experiment with SK-OV-3, > 100 µM (inactive). Further, the GI50 in the experiment on NCI-H226 was > 100 µM (inactive); with RPMI-8226, > 64.3 µM (inactive).
For the compound `CCn1c(SCc2nnc(Nc3ccccc3)s2)nc2ccccc2c1=O`, the GI50 with M14 was 10.4 µM (inactive); in the experiment on LOX IMVI, 5.02 µM (inactive); in the experiment with OVCAR-5, 6.14 µM (inactive); in the experiment on SR, 23.7 µM (inactive); with EKVX it was 3.56 µM (inactive); with Hs-578T it was 2.39 µM (inactive). The GI50 in the experiment with NCI-H522 is 2.09 µM (inactive); with BT-549, 5.24 µM (inactive); in the experiment on SF-268 it was 3.98 µM (inactive); in the experiment on HT-29, 2.95 µM (inactive); with OVCAR-3, 5.19 µM (inactive); in the experiment on U-251 it was 2.24 µM (inactive). Also, the GI50 is 2.17 µM (inactive) with HOP-62; 4.23 µM (inactive) in the experiment with SN12C; 47.6 µM (inactive) with CCRF-CEM; 2.57 µM (inactive) with HOP-92; 11.8 µM (inactive) in the experiment on UACC-257; 2.62 µM (inactive) in the experiment with SK-OV-3. For the same compound, the GI50 with NCI-H226 is 2.19 µM (inactive); with RPMI-8226 it was 5.5 µM (inactive).
